Reference: US10975056B2 (GlaxoSmithKline Intellectual Property Development Limited, priority 2016, dated 2021)
“And” between values parts separate entries of the source, which are not always exact repeats. Equal entries are not always repeated. Structures can show the parent of a compound that is named as a salt. Where two headings read alike, the source gives them in different places.

Experiments:
[1] = test system: erythroid progenitor cells (EPCs); experiment: Fetal hemoglobin (HbF) ELISA in day 7 erythroid progenitor cells; type: cell-based, human; conditions: Homo sapiens, Erythroid progenitor cell, HbF ELISA, day 7 EPCs, 5 days; read-out: EPC ELISA (pEC50 category) (converted);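 further: for fetal hemoglobin induction normalized to vehicle-treated cells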
In short: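 Read-out was OD450 from an HRP/TMB sandwich ELISA on lysates, normalized to DMSO-only control wells. Thawed day 7 EPCs from human marrow CD34+ cells had been treated for 5 days at 37° C with Compound A, 22 concentrations […].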

DNMT1 = DNMT1 (Homo sapiens, UniProt P26358); experiment: DNMT1 biochemical activity, breaklight assay and/or SPA assay
DNMT1, sequence (P26358 whole entry, looked up): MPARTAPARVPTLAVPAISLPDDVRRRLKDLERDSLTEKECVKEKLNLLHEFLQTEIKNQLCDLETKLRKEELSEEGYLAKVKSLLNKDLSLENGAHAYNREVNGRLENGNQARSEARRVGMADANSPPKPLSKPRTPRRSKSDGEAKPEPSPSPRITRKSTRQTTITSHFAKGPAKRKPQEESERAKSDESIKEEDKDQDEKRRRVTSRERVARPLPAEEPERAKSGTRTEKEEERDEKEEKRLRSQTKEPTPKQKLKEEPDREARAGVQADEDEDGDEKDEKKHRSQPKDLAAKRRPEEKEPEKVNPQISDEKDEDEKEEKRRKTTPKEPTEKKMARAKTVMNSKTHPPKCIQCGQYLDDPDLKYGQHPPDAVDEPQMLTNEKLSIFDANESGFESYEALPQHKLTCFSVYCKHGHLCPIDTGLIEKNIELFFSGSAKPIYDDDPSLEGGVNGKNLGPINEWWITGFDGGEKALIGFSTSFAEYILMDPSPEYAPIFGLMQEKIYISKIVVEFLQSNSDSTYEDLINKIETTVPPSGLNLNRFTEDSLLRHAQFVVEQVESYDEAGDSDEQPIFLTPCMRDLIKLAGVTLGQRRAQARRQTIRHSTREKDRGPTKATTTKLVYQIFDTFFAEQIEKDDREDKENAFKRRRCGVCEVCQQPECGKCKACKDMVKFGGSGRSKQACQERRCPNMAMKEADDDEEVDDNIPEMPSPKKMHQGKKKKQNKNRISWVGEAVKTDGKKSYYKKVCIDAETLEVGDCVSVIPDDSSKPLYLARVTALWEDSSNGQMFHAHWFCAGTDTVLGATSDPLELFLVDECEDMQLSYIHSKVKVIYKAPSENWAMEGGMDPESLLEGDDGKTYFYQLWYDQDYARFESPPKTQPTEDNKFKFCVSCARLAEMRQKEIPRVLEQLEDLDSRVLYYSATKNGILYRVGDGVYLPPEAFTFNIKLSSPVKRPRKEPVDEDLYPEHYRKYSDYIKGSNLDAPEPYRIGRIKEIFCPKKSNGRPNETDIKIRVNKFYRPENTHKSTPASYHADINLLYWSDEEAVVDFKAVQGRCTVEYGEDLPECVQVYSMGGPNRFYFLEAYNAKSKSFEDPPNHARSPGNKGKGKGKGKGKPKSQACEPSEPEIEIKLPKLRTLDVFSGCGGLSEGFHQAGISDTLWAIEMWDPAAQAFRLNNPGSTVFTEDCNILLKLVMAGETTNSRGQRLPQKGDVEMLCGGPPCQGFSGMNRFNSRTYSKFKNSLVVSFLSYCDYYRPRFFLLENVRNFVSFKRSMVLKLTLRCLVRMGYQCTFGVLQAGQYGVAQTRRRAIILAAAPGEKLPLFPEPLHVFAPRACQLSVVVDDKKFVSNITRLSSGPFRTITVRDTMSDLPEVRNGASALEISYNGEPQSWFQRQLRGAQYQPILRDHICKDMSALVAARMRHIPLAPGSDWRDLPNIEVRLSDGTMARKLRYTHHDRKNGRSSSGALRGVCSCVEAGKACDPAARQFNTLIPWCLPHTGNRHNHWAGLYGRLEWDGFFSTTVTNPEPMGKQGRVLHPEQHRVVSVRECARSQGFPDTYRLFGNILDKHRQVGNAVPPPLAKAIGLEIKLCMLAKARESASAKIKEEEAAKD

[2] = binned activity in either the breaklight or the SPA assay, read-out: DNMT1 BioChemical (pIC50 category) (converted)
[3] = binned activity in either the breaklight or the SPA assay
[4] = breaklight assay and/or SPA assay, repeated experimental runs, read-out: average pIC50 against DNMT1 (converted)
[5] = breaklight assay and/or SPA assay, repeated experimental runs

Row | Structure (SMILES) | EC50 [1] [µM] | IC50 (DNMT1; [2]) [µM] | DNMT1 BioChemical (pIC50 category) (DNMT1; [3]) | IC50 (DNMT1; [4]) | average pIC50 against DNMT1 (DNMT1; [5]) | average pIC50 against DNMT1 (DNMT1; breaklight assay and/or SPA assay, repeated experimental runs, methanesulfonate 2,2,2-trifluoroacetate)
1 | CCc1c(C#N)c(SC(C(N)=O)c2ccccc2)nc(N2CCC(C(N)=O)C2)c1C#N (stereo not shown) [Example 388, 1-(6-((2-Amino-2-oxo-1-phenylethyl)thio)-3,5-dicyano-4-ethylpyridin-2-yl)pyrrolidine-3-carboxamide] | 1 to 31.6 | 0.316 to 1 |  |  |  | 
2 | CCc1c(C#N)c(SC(C(N)=O)c2ncccc2F)nc(N2CCC(N)CC2)c1C#N (stereo not shown) [Example 583, 2-((6-(4-aminopiperidin-1-yl)-3,5-dicyano-4-ethylpyridin-2-yl)thio)-2-(3-fluoropyridin-2-yl)acetamide] | < 0.316 |  | D (Category D: ≥6.5) |  |  | 
3 | CCc1c(C#N)c(SC(C(N)=O)c2ccccc2)nc(N(C)CCN2CCC[C@H]2C)c1C#N (stereo partly drawn) [Example 459, 2-((3,5-dicyano-4-ethyl-6-(methyl(2-((R)-2-methylpyrrolidin-1-yl)ethyl)amino)pyridin-2-yl)thio)-2-phenylacetamide] | < 0.316 |  | D (Category D: ≥6.5) |  |  | 
4 | CCc1c(C#N)c(SC(C(N)=O)c2cncc(C)c2)nc(N2CCCN(C)CC2)c1C#N (stereo not shown) [Example 266] | 0.316 to 1 | 1 to 31.6 |  | ≥ 1 µM and 2 µM |  | 
5 | CCc1c(C#N)c(SCc2ccc(N)nc2)nc(N2CCCN(C)CC2)c1C#N [Example 300, 2-(((6-Aminopyridin-3-yl)methyl)thio)-4-ethyl-6-(4-methyl-1,4-diazepan-1-yl)pyridine-3,5-dicarbonitrile] | 1 to 31.6 | 0.316 to 1 |  |  |  | 
6 | N#Cc1c(SC(C(N)=O)c2ccccc2)nc(N2CCNC(CO)C2)c(C#N)c1C1CC1 (stereo not shown) [Example 14, 2-({3,5-dicyano-4-cyclopropyl-6-[3-(hydroxymethyl)piperazin-1-yl]pyridin-2-yl}sulfanyl)-2-phenylacetamide] | 0.316 to 1 |  | D (Category D: ≥6.5) |  |  | 
7 | CCCS(=O)(=O)N1CCN(c2nc(SC(C(N)=O)c3ccccc3)c(C#N)c(CC)c2C#N)CC1 (stereo not shown) [Example 158, 2-((3,5-Dicyano-4-ethyl-6-(4-(propylsulfonyl)piperazin-1-yl)pyridin-2-yl)thio)-2-phenylacetamide] | < 0.316 | 0.316 to 1 |  |  |  | 
8 | CCc1c(C#N)c(SCc2ccc(N(C)S(C)(=O)=O)cc2)nc(N(C)CCN)c1C#N [Example 484, N-(4-(((6-((2-aminoethyl)(methyl)amino)-3,5-dicyano-4-ethylpyridin-2-yl)thio)methyl)phenyl)-N-methylmethanesulfonamide] | < 0.316 |  | D (Category D: ≥6.5) |  |  | 
9 | CCc1c(C#N)c(SC(C(N)=O)c2ccc(F)cc2)nc(N2CCC(N)CC2)c1C#N (stereo not shown) [Example 522, 2-((6-(4-aminopiperidin-1-yl)-3,5-dicyano-4-ethylpyridin-2-yl)thio)-2-(4-fluorophenyl)acetamide hydrochloride] | < 0.316 |  | D (Category D: ≥6.5) |  |  | 
10 | CCc1c(C#N)c(SC(C(N)=O)c2ccccc2)nc(N2CCC(C)(NCCO)CC2)c1C#N (stereo not shown) [Example 643, 2-((3,5-dicyano-4-ethyl-6-(4-((2-hydroxyethyl)amino)-4-methylpiperidin-1-yl)pyridin-2-yl)thio)-2-phenylacetamide] | < 0.316 |  | D (Category D: ≥6.5) |  |  | 
11 | CCc1c(C#N)c(SC(C(N)=O)c2ccccc2)nc(N2CC[C@@](F)(CN)C2)c1C#N (stereo partly drawn) [Example 632, 2-((6-((R)-3-(aminomethyl)-3-fluoropyrrolidin-1-yl)-3,5-dicyano-4-ethylpyridin-2-yl)thio)-2-phenylacetamide] | 1 to 31.6 |  | D (Category D: ≥6.5) |  |  | 
12 | CCc1c(C#N)c(SC(C(N)=O)c2ccnc(C)c2)nc(N2CCCN(C)CC2)c1C#N (stereo not shown) [Example 246, 2-((3,5-Dicyano-4-ethyl-6-(4-methyl-1,4-diazepan-1-yl)pyridin-2-yl)thio)-2-(2-methylpyridin-4-yl)acetamide] | > 31.6 | 0.316 to 1 |  |  |  | 
13 | CCc1c(C#N)c(SCc2ccc(B(O)O)cc2)nc(N2CCCN(C)CC2)c1C#N [Example 357, 4-((3,5-Dicyano-4-ethyl-6-(4-methyl-1,4-diazepan-1-yl)pyridin-2-ylthio)methyl)phenylboronic acid] | > 31.6 | 0.316 to 1 |  |  |  | 
14 | CCc1c(C#N)c(SCc2ccc(N(C)S(C)(=O)=O)cc2)nc(N(C)CCNC2(C)CC2)c1C#N [Example 481, N-(4-(((3,5-dicyano-4-ethyl-6-(methyl(2-((1-methylcyclopropyl)amino)ethyl)amino)pyridin-2-yl)thio)methyl)phenyl)-N-methylmethanesulfonamide] | < 0.316 |  | D (Category D: ≥6.5) |  |  | 
15 | CCc1c(C#N)c(SC(C(N)=O)c2ccccc2)nc(N2CCN(C(=O)c3ccc(Br)cc3)CC2)c1C#N (stereo not shown) [Example 310, 2-((6-(4-(4-Bromobenzoyl)piperazin-1-yl)-3,5-dicyano-4-ethylpyridin-2-yl)thio)-2-phenylacetamide] | < 0.316 | 1 to 31.6 |  | ≥ 1 µM and 2 µM |  | 
16 | CCc1c(C#N)c(SC(C(N)=O)c2ccccc2)nc(N(C)CCCN)c1C#N (stereo not shown) [Example 670, 2-((6-((3-aminopropyl)(methyl)amino)-3,5-dicyano-4-ethylpyridin-2-yl)thio)-2-phenylacetamide hydrochloride] | < 0.316 |  | D (Category D: ≥6.5) |  |  | 
17 | CCc1c(C#N)c(S[C@@H](C(N)=O)c2ccccc2)nc(N2CCC(N(C)C)CC2)c1C#N [Example 406, (R)-2-((3,5-Dicyano-6-(4-(dimethylamino)piperidin-1-yl)-4-ethylpyridin-2-yl)thio)-2-phenylacetamide] | < 0.316 |  | D (Category D: ≥6.5) |  |  | 
18 | CCc1c(C#N)c(S[C@@H](C(N)=O)c2ccccc2)nc(N2CC[C@@H](NC(=O)OC(C)(C)C)[C@@H](O)C2)c1C#N [Example 533, tert-butyl ((3S,4R)-1-(6-(((R)-2-amino-2-oxo-1-phenylethyl)thio)-3,5-dicyano-4-ethylpyridin-2-yl)-3-hydroxypiperidin-4-yl)carbamate] | < 0.316 |  | D (Category D: ≥6.5) |  |  | 
19 | CCc1c(C#N)c(SC(C(N)=O)c2ccccc2)nc(N(C)CCN2CCCCCC2)c1C#N (stereo not shown) [Example 477, 2-((6-((2-(azepan-1-yl)ethyl)(methyl)amino)-3,5-dicyano-4-ethylpyridin-2-yl)thio)-2-phenylacetamide] | < 0.316 |  | D (Category D: ≥6.5) | 0.1 µM | > 6.5 | 
20 | CCc1c(C#N)c(SC(C(N)=O)c2ccc(C(F)(F)F)cc2)nc(N2CCC(NCC(C)(C)C)CC2)c1C#N (stereo not shown) [Example 532, 2-((3,5-dicyano-4-ethyl-6-(4-(neopentylamino)piperidin-1-yl)pyridin-2-yl)thio)-2-(4-(trifluoromethyl)phenyl)acetamide] | < 0.316 |  | D (Category D: ≥6.5) |  |  | 
21 | CCc1c(C#N)c(SCc2ccc(CNC(C)=O)cc2)nc(N2CCC(O)C2)c1C#N (stereo not shown) [Example 331, N-(4-(((3,5-Dicyano-4-ethyl-6-(3-hydroxypyrrolidin-1-yl)pyridin-2-yl)thio)methyl)benzyl)acetamide] | > 31.6 | 0.316 to 1 |  |  |  | 
22 | CCc1c(C#N)c(SC(C(N)=O)c2ccccc2)nc(N(C)Cc2cc[nH]n2)c1C#N (stereo not shown) [Example 356, 2-((6-(((1H-Pyrazol-3-yl)methyl)(methyl)amino)-3,5-dicyano-4-ethylpyridin-2-yl)thio)-2-phenylacetamide] | 0.316 to 1 |  | D (Category D: ≥6.5) |  |  | 
23 | CN(CCO)c1nc(SC(C(N)=O)c2ccccc2)c(C#N)c(C2CC2)c1C#N (stereo not shown) [Example 386, 2-((3,5-Dicyano-4-cyclopropyl-6-((2-hydroxyethyl)(methyl)amino)pyridin-2-yl)thio)-2-phenylacetamide] | 1 to 31.6 | 0.316 to 1 |  |  |  | 
24 | CCc1c(C#N)c(SCc2ccc(N(C)S(C)(=O)=O)cc2)nc(N(C)CCN2CCCC2)c1C#N [Example 570, N-(4-(((3,5-dicyano-4-ethyl-6-(methyl(2-(pyrrolidin-1-yl)ethyl)amino)pyridin-2-yl)thio)methyl)phenyl)-N-methylmethanesulfonamide] | < 0.316 |  | D (Category D: ≥6.5) |  |  | 
25 | CCc1c(C#N)c(SCc2ccc(CN3CCCC3=O)cc2)nc(N2CCCN(C)CC2)c1C#N [Example 269, 4-Ethyl-2-(4-methyl-1,4-diazepan-1-yl)-6-((4-((2-oxopyrrolidin-1-yl)methyl)benzyl)thio)pyridine-3,5-dicarbonitrile] | 1 to 31.6 | 1 to 31.6 |  |  |  | 
26 | CCc1c(C#N)c(SC(C(N)=O)c2ccccc2)nc(N2CCC(CN(C)C)C2)c1C#N (stereo not shown) [Example 512, 2-((3,5-dicyano-6-(3-((dimethylamino)methyl)pyrrolidin-1-yl)-4-ethylpyridin-2-yl)thio)-2-phenylacetamide] | < 0.316 |  | D (Category D: ≥6.5) |  |  | 
27 | CCc1c(C#N)c(SC(C(N)=O)c2ccccc2)nc(N(C)CC(=O)N2C[C@@H](CO)[C@H](O)C2)c1C#N (stereo partly shown) [Example 649] | 1 to 31.6 |  | D (Category D: ≥6.5) | 0.126 µM | > 6.5 | 
28 | CCc1c(C#N)c(SCc2ccc(OS(C)(=O)=O)cc2)nc(N2CCC(N)CC2)c1C#N [Example 626, 4-(((6-(4-aminopiperidin-1-yl)-3,5-dicyano-4-ethylpyridin-2-yl)thio)methyl)phenyl methanesulfonate 2,2,2-trifluoroacetate] | < 0.316 |  | D (Category D: ≥6.5) | 0.2 µM |  | > 6.5
